In patent US20260015350A1, “AZAQUINAZOLINE PAN-KRAS INHIBITORS” (Mirati Therapeutics, Inc., priority 2022, published 2026):

Tests used:
[1] = target: T1, KRas^G12D (Homo sapiens, UniProt P01116, G12D); experiment: KRas binding assay (TR-FRET tracer displacement), KRas G12D
T1 construct: Biotinylated KRas (corresponding to amino acids 1-169, produced at Accelegan Inc.); biotin (biotinylated); purchased Accelegan Inc

[2] = target: T2, KRas^G12R (Homo sapiens, UniProt P01116, G12R); experiment: KRas binding assay (TR-FRET tracer displacement), KRas G12R
T2 construct: Biotinylated KRas (corresponding to amino acids 1-169, produced at Accelegan Inc.); biotin (biotinylated); purchased Accelegan Inc

[3] = target: T3, KRas^G12V (Homo sapiens, UniProt P01116, G12V); experiment: KRas binding assay (TR-FRET tracer displacement), KRas G12V
T3 construct: Biotinylated KRas (corresponding to amino acids 1-169, produced at Accelegan Inc.); biotin (biotinylated); purchased Accelegan Inc

[4] = test system: KRas-mediated phosphorylation of ERK in AsPC-1 cells; experiment: Inhibition of KRas-mediated phosphorylation of ERK (Cisbio HTRF pERK), AsPC-1 cells; format: cell-based; conditions: Homo sapiens, ASPC1, AsPC-1 cells; HTRF pERK
Procedure, shortened: (§1)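 Compound treatment lasts 3 hrs on 6,000 seeded cells, testing 10 doses from a 10 uM top concentration in 3-fold decrements at 0.8% final DMSO. Trametinib at 0.2 uM defines the Min signal. Detection is HTRF on cold-lysed cell extracts.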

[5] = test system: KRas-mediated phosphorylation of ERK in H727 cells; experiment: Inhibition of KRas-mediated phosphorylation of ERK (Cisbio HTRF pERK), H727 cells; format: cell-based; conditions: Homo sapiens, NCI-H727, H727 cells; HTRF pERK
Procedure, shortened: as §1

[6] = test system: KRas-mediated phosphorylation of ERK in A549 cells; experiment: Inhibition of KRas-mediated phosphorylation of ERK (Cisbio HTRF pERK), A549 cells; format: cell-based; conditions: Homo sapiens, HTRF pERK
Experimental: Inhibition of KRas Phosphorylation of ERK (HTRF) by Exemplary Compounds of Formula (I) Cisbio HTRF Advanced PERK Assay Catalog #64[…] […] Add 10 mL of media to stop trypsinizing. Pipette the cells into a conical bottom 50 mL centrifuge tube and centrifuge 5 min×1000 rpm. […] Re-suspend the cell pellet in media, take a cell count, and then adjust the cell density using fresh media. […] Seed 6,000 cells into cell culture plate with 50 μL media. […] Use Tecan to complete the compound addition. Compounds start from 10 uM top, 3-fold dilution, and 10 doses. The final DMSO concentration is 0.8%. Dispensed 0.2 uM Trametinib as Min control. […] Incubate cell plate for 3 hrs in the incubator. […] Dilute 1 volume of 4× lysis buffer with 3 volumes of deionized water. […] Keep lysis buffer on the ice. […] At the end of the compound treatment, flick-off the media. […] Add 35 μL of lysis buffer per well using a Multidrop Combi. Then place on a plate agitator shaking at 300 rpm at 4° C. for 40 mins. […] Make up the HTRF antibody buffer. For each assay plate, mix 50 μL of d2-conjugate antibody with 950 μL of detection buffer. Similarly, mix 50 μL of Cryptate antibody with 950 μL of detection buffer. Then mix the two diluted antibodies together. […] Dispense 3.4 μL the antibody buffer to wells of an empty assay plate. Seal the plate and centrifuge plate 30 sec×1000 rpm. […] At the end of the 4° C. lysis, centrifuge the lysate plates 3 mins×1500 rpm. […] Use the Bravo to transfer 13.6 μL of lysate from cell culture plate to assay plate. Then incubate assay plate for 2 hrs at room temperature. 8. At the end of incubation, read plate on the Envision after centrifuging plate 30 sec×1000 rpm.

T2 sequence (P01116 1-169 isoform P01116-2 G12R): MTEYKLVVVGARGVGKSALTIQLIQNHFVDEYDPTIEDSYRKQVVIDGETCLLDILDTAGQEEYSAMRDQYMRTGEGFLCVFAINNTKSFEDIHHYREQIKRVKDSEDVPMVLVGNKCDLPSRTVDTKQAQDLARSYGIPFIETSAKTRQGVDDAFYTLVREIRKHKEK
T1 sequence (P01116 1-169 isoform P01116-2 G12D): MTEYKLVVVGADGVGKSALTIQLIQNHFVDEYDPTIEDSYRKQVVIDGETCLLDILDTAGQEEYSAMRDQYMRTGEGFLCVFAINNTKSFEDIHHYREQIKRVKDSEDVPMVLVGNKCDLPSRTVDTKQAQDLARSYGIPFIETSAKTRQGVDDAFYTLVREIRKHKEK
T3 sequence (P01116 1-169 isoform P01116-2 G12V): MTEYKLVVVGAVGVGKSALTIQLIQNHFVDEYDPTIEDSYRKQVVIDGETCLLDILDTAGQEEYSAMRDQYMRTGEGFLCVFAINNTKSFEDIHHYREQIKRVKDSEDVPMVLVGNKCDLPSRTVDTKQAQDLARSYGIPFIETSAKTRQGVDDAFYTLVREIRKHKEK

IC50 [1] [nM] | IC50 [2] [nM] | IC50 [3] [nM] | IC50 [4] [nM] | IC50 [5] [nM] | IC50 [6] [nM] | Compound
< 2 | < 2 | < 2 | 312 | 603 | 822 | CCc1c(F)ccc2cc(O)cc(-c3ncc4c(N5CCC[S+]([O-])CC5)nc(OC[C@@]56CCCN5C[C@H](F)C6)nc4c3F)c12 (stereo partly drawn) [Example 558, 4-(7-(8-ethyl-7-fluoro-3-hydroxynaphthalen-1-yl)-8-fluoro-2-(((2R,7aS)-2-fluorohexahydro-1H-pyrrolizin-7a-yl)methoxy)pyrido[4,3-d]pyrimidin-4-yl)-1,4-thiazepane 1-oxide]
11400 | 21400 | 12700 | > 10000 | > 10000 |  | CCc1c(F)ccc2cc(O)cc(-c3ncc4c(N5CCC[C@@](C)(O)C5)nc(OCC56CC5CCCN(C)C6)nc4c3F)c12 (stereo partly drawn) [Example 828, (3R)-1-(7-(8-ethyl-7-fluoro-3-hydroxynaphthalen-1-yl)-8-fluoro-2-((3-methyl-3-azabicyclo[5.1.0]octan-1-yl)methoxy)pyrido[4,3-d]pyrimidin-4-yl)-3-methylpiperidin-3-ol]
809 | 282 | 310 | 7700 | > 10000 |  | CCc1c(F)ccc2cc(O)cc(-c3ncc4c(N5CCn6ncc(C#N)c6C5)nc(OC[C@@]56CCCN5C[C@H](F)C6)nc4c3F)c12 [Example 865, 5-(7-(8-ethyl-7-fluoro-3-hydroxynaphthalen-1-yl)-8-fluoro-2-(((2R,7aS)-2-fluorotetrahydro-1H-pyrrolizin-7a(5H)-yl)methoxy)pyrido[4,3-d]pyrimidin-4-yl)-4,5,6,7-tetrahydropyrazolo[1,5-a]pyrazine-3-carbonitrile]
527 | 253 | 97 | > 10000 | 3410 |  | CCc1c(F)ccc2cc(O)cc(-c3ncc4c(N5Cc6c(C(=O)N(C)C)nn(C)c6C5)nc(OC[C@@]56CCCN5C[C@H](F)C6)nc4c3F)c12 [Example 867, 5-(7-(8-ethyl-7-fluoro-3-hydroxynaphthalen-1-yl)-8-fluoro-2-(((2R,7aS)-2-fluorotetrahydro-1H-pyrrolizin-7a(5H)-yl)methoxy)pyrido[4,3-d]pyrimidin-4-yl)-N,N, 1-trimethyl-1,4,5,6-tetrahydropyrrolo[3,4-c]pyrazole-3-carboxamide]
22 | 9 | 8 | 8160 | 1670 |  | CCc1c(F)ccc2cc(O)cc(-c3ncc4c(N5CC6CCC(CCC(N)=O)(C6)C5)nc(OC[C@@]56CCCN5C[C@H](F)C6)nc4c3F)c12 (stereo partly drawn) [Example 910, 3-(3-(7-(8-ethyl-7-fluoro-3-hydroxynaphthalen-1-yl)-8-fluoro-2-(((2R,7aS)-2-fluorotetrahydro-1H-pyrrolizin-7a(5H)-yl)methoxy)pyrido[4,3-d]pyrimidin-4-yl)-3-azabicyclo[3.2.1]octan-1-yl)propanamide]

Second part, the molecule before the results:

Compound | IC50 [1] [nM] | IC50 [2] [nM] | IC50 [3] [nM] | IC50 [4] [nM] | IC50 [5] [nM] | IC50 [6] [nM]
CCc1c(F)ccc2cc(O)cc(-c3ncc4c(NC5CC6(CCCO6)C5)nc(OC[C@@]56CCCN5C[C@H](F)C6)nc4c3F)c12 (stereo partly drawn) [Example 554, 4-(4-(5-oxaspiro[3.4]octan-2-ylamino)-8-fluoro-2-(((2R,7aS)-2-fluorohexahydro-1H-pyrrolizin-7a-yl)methoxy)pyrido[4,3-d]pyrimidin-7-yl)-5-ethyl-6-fluoronaphthalen-2-ol] | 79 | 10 | 9 | 2380 | 410 | 742
CCc1c(F)ccc2cc(O)cc(-c3ncc4c(N5CC6C(=O)NC(=O)C6C5C)nc(OC[C@@]56CCCN5C[C@H](F)C6)nc4c3F)c12 (stereo partly drawn) [Example 590, 5-(7-(8-ethyl-7-fluoro-3-hydroxynaphthalen-1-yl)-8-fluoro-2-(((2R,7aS)-2-fluorohexahydro-1H-pyrrolizin-7a-yl)methoxy)pyrido[4,3-d]pyrimidin-4-yl)-4-methyltetrahydropyrrolo[3,4-c]pyrrole-1,3(2H,3aH)-dione] | 2 | 2 | 3 | 505 | 833 | 494
CCc1c(F)ccc2cc(O)cc(-c3ncc4c(NC5CCCc6c(C(=O)N(C)C)nn(C)c65)nc(OC[C@@]56CCCN5C[C@H](F)C6)nc4c3F)c12 (stereo partly drawn) [Example 672, 7-((7-(8-ethyl-7-fluoro-3-hydroxynaphthalen-1-yl)-8-fluoro-2-(((2R,7aS)-2-fluorohexahydro-1H-pyrrolizin-7a-yl)methoxy)pyrido[4,3-d]pyrimidin-4-yl)amino)-N,N,1-trimethyl-4,5,6,7-tetrahydro-1H-indazole-3-carboxamide] | 8 | 4 | 5 | 469 | 1260 | 541
O=C1NS(=O)(=O)NC12CCCN(c1nc(OC[C@@]34CCCN3C[C@H](F)C4)nc3c(F)c(-c4cc(O)cc5ccc(F)c(Cl)c45)ncc13)C2 (stereo partly drawn) [Example 816, 7-(7-(8-chloro-7-fluoro-3-hydroxynaphthalen-1-yl)-8-fluoro-2-(((2R,7aS)-2-fluorotetrahydro-1H-pyrrolizin-7a(5H)-yl)methoxy)pyrido[4,3-d]pyrimidin-4-yl)-2-thia-1,3,7-triazaspiro[4.5]decan-4-one 2,2-dioxide] | 8 | 3 | 3 | > 10000 | > 10000 | 
CCc1c(F)ccc2cc(O)cc(-c3ncc4c(N5CCC(Cc6cncn6C)C5)nc(OC[C@@]56CCCN5C[C@H](F)C6)nc4c3F)c12 (stereo partly drawn) [Example 829, 5-ethyl-6-fluoro-4-(8-fluoro-2-(((2R,7aS)-2-fluorotetrahydro-1H-pyrrolizin-7a(5H)-yl)methoxy)-4-(3-((1-methyl-1H-imidazol-5-yl)methyl)pyrrolidin-1-yl)pyrido[4,3-d]pyrimidin-7-yl)naphthalen-2-ol] | 939 | 460 | 195 | > 10000 | > 10000 | 
CCc1c(F)ccc2cc(O)cc(-c3ncc4c(N5CCCCCC(P(C)(C)=O)C5)nc(OC[C@@]56CCCN5C[C@H](F)C6)nc4c3F)c12 (stereo partly drawn) [Example 864, (1-(7-(8-ethyl-7-fluoro-3-hydroxynaphthalen-1-yl)-8-fluoro-2-(((2R,7aS)-2-fluorotetrahydro-1H-pyrrolizin-7a(5H)-yl)methoxy)pyrido[4,3-d]pyrimidin-4-yl)azocan-3-yl)dimethylphosphine oxide] | 2130 | 1790 | 946 | > 10000 | > 10000 | 
CCc1c(F)ccc2cc3[nH]ncc3c(-c3ncc4c(N5CCC[C@]6(C5)NC(=O)NC6=O)nc(OCC56CCCN5CCC6)nc4c3F)c12 [Example 884, (5R)-7-(7-(5-ethyl-6-fluoro-1H-benzo[f]indazol-4-yl)-8-fluoro-2-((tetrahydro-1H-pyrrolizin-7a(5H)-yl)methoxy)pyrido[4,3-d]pyrimidin-4-yl)-1,3,7-triazaspiro[4.5]decane-2,4-dione] | < 2 | < 2 | < 2 | 3180 | 2810 | 
CCc1c(F)ccc2cc(O)cc(-c3ncc4c(N5CC(C)(O)C6CC5C6)nc(OC[C@@]56CCCN5C[C@H](F)C6)nc4c3F)c12 (stereo partly drawn) [Example 893, 2-(7-(8-ethyl-7-fluoro-3-hydroxynaphthalen-1-yl)-8-fluoro-2-(((2R,7aS)-2-fluorotetrahydro-1H-pyrrolizin-7a(5H)-yl)methoxy)pyrido[4,3-d]pyrimidin-4-yl)-4-methyl-2-azabicyclo[3.1.1]heptan-4-ol] | 92 | 40 | 43 | 2100 | 3020 | 
CCc1c(F)ccc2cc(O)cc(-c3ncc4c(N5CC6CCC(CCC(=O)NC)(C6)C5)nc(OC[C@@]56CCCN5C[C@H](F)C6)nc4c3F)c12 (stereo partly drawn) [Example 909, 3-(3-(7-(8-ethyl-7-fluoro-3-hydroxynaphthalen-1-yl)-8-fluoro-2-(((2R,7aS)-2-fluorotetrahydro-1H-pyrrolizin-7a(5H)-yl)methoxy)pyrido[4,3-d]pyrimidin-4-yl)-3-azabicyclo[3.2.1]octan-1-yl)-N-methylpropanamide] | 24 | 7 | 7 | 5160 | 1310 | 
